Assay results: ChEMBL document CHEMBL1649259, “High prevalence of CTX-M-type beta-lactamases among clinical isolates of Enterobacteriaceae in Bamako, Mali” (2009)

Legend:
Format in all cases: functional
[1] = tested on: Klebsiella pneumoniae; experiment: Antibacterial activity against CTX-M-14 ESBL producing Klebsiella pneumoniae assessed as resistant isolates by disk diffusion method
[2] = tested on: Escherichia coli; experiment: Antibacterial activity against CTX-M-15 ESBL producing Escherichia coli assessed as resistant isolates by disk diffusion method
[3] = tested on: Klebsiella pneumoniae; experiment: Antibacterial activity against SHV-12 ESBL producing Klebsiella pneumoniae assessed as resistant isolates by disk diffusion method
[4] = tested on: Escherichia coli; experiment: Antibacterial activity against CTX-M-15 and SHV-12 ESBL producing Escherichia coli assessed as resistant isolates by disk diffusion method
[5] = tested on: Escherichia coli; experiment: Antibacterial activity against CTX-M-15 and SHV-27 ESBL producing Escherichia coli assessed as resistant isolates by disk diffusion method
[6] = tested on: Klebsiella pneumoniae; experiment: Antibacterial activity against CTX-M-15 ESBL producing Klebsiella pneumoniae assessed as resistant isolates by disk diffusion method
[7] = tested on: Proteus mirabilis; experiment: Antibacterial activity against CTX-M-14 ESBL producing Proteus mirabilis assessed as resistant isolates by disk diffusion method
[8] = tested on: Escherichia coli; experiment: Antibacterial activity against CTX-M-14 ESBL producing Escherichia coli assessed as resistant isolates by disk diffusion method
[9] = tested on: Escherichia coli; experiment: Antibacterial activity against SHV-12 ESBL producing Escherichia coli assessed as resistant isolates by disk diffusion method
[10] = tested on: Enterobacter cloacae; experiment: Antibacterial activity against SHV-12 ESBL producing Enterobacter cloacae assessed as resistant isolates by disk diffusion method
[11] = tested on: Morganella morganii; experiment: Antibacterial activity against CTX-M-14 ESBL producing Morganella morganii assessed as resistant isolates by disk diffusion method
[12] = tested on: Enterobacter cloacae; experiment: Antibacterial activity against CTX-M-15 ESBL producing Enterobacter cloacae assessed as resistant isolates by disk diffusion method

Compound | Activity [1] [%] | Activity [2] [%] | Activity [3] [%] | Activity [4] [%] | Activity [5] [%] | Activity [6] [%] | Activity [7] [%] | Activity [8] [%] | Activity [9] [%] | Activity [10] [%] | Activity [11] [%] | Activity [12] [%]
NCC[C@H](O)C(=O)N[C@@H]1C[C@H](N)[C@@H](O[C@H]2O[C@H](CN)[C@@H](O)[C@H](O)[C@H]2O)[C@H](O)[C@H]1O[C@H]1O[C@H](CO)[C@@H](O)[C@H](N)[C@H]1O [AMIKACIN] | 0 | 17 | 50 | 0 | 0 | 20 | 0 | 0 | 100 | 78 | 100 | 0
O=C(N[C@H](CO)[C@H](O)c1ccc([N+](=O)[O-])cc1)C(Cl)Cl [CHLORAMPHENICOL] | 67 | 73 | 83 | 100 | 100 | 40 | 100 | 82 | 100 | 89 | 100 | 100
O=C(O)c1cn(C2CC2)c2cc(N3CCNCC3)c(F)cc2c1=O [CIPROFLOXACIN] | 33 | 98 | 67 | 100 | 100 | – | 100 | 100 | 0 | – | 100 | –
CCn1cc(C(=O)O)c(=O)c2ccc(C)nc21 [NALIDIXIC ACID] | 67 | 98 | 83 | 100 | 0 | 93 | 100 | 100 | 100 | 100 | 100 | 100
CCn1cc(C(=O)O)c(=O)c2cc(F)c(N3CCNCC3)cc21 [NORFLOXACIN] | 33 | 98 | 67 | 100 | 100 | 96 | 100 | 100 | 100 | 89 | 100 | 100
CN(C)[C@@H]1C(O)=C(C(N)=O)C(=O)[C@@]2(O)C(O)=C3C(=O)c4c(O)cccc4[C@@](C)(O)[C@H]3C[C@@H]12 [TETRACYCLINE] | 67 | 88 | 50 | 100 | 0 | 84 | 100 | 82 | 100 | 89 | 100 | 100
NC[C@H]1O[C@H](O[C@H]2[C@H](O)[C@@H](O[C@H]3O[C@H](CO)[C@@H](O)[C@H](N)[C@H]3O)[C@H](N)C[C@@H]2N)[C@H](N)C[C@@H]1O [TOBRAMYCIN] | 67 | 97 | 83 | 100 | 100 | 96 | 0 | 100 | 100 | 89 | 100 | 100
COc1cc(Cc2cnc(N)nc2N)cc(OC)c1OC [TRIMETHOPRIM] | 100 | 95 | 100 | 100 | 100 | 100 | 100 | 100 | 100 | 89 | 100 | 100
GENTAMICIN | 67 | 83 | 33 | 100 | 100 | 89 | 0 | 100 | 0 | 12 | 100 | 100
